Measured values taken from US6790864B2, “Compositions and methods to prevent toxicity induced by nonsteroidal antiinflammatory drugs” (NitroMed, Inc., priority 1995, dated 2004).

Experiments:
gastric lesion [1] = assay: rat gastric lesion test, multiple dosing studies; assay type: in vivo, rats
Protocol: The rat gastric lesion test (Kitagawa et al., J. Pharmacol. Exp.Ther., 253:1133-1137, 1990; Al-Ghamdi et al., J. Int. Med. Res., 19: 2242, 1991) was used to evaluate the potential of compounds to produce gastric lesion. Male Sprague Dawley rats (Charles River Laboratories, Wilmington, Mass.) weighing 230-250 g were used for the experiments. The rats were housed with laboratory chow and water ad libitum prior to the study. The rats were fasted for 24-30 hours with free access to water and then dosed by oral gavage with vehicle or with drugs given at a volume of 0.5 mL/100 g. For the unmodified NSAIDs being given in combination with a nitric oxide adduct (NO-adduct), the NO-adduct was administered by oral gavage immediately prior to the administration of NSAID by oral gavage. […] For acute studies, rats were euthanized by CO2 eighteen hours after dosing and the stomachs were dissected. […] […] The stomachs were dissected along the greater curvature, washed with a directed stream of 0.9% saline and pinned open on a sylgard based petridish for examination of the hemorrhagic lesion. Gastric lesion score was expressed in mm and calculated by summing the length of each lesion.

carrageenin paw edema = assay: rat paw edema test (antiinflammatory activity); assay type: in vivo, rats; settings: ratio of activity relative to the parent NSAID; oral gavage one hour prior to carrageenin, paw volume after three hours
Protocol: The rat paw edema test was used to measure antiinflammatory activity. The rat paw edema test was performed according to the method of Winter et al., Proc. Soc. […] Male Sprague-Dawley rats (250-275 g) were fasted overnight and dosed by oral gavage with vehicle or suspensions of compound one hour prior to the subplantar injection of 50 μl of 1% suspension of carrageenin. Three hours later, the paw volume was measured and compared with the initial volume measured immediately after carrageenin injection.

gastric lesion [2] = assay: rat gastric lesion test, acute (single dose); assay type: in vivo, rats
Protocol: The rat gastric lesion test (Kitagawa et al., J. Pharmacol. Exp.Ther., 253:1133-1137, 1990; Al-Ghamdi et al., J. Int. Med. Res., 19: 2242, 1991) was used to evaluate the potential of compounds to produce gastric lesion. Male Sprague Dawley rats (Charles River Laboratories, Wilmington, Mass.) weighing 230-250 g were used for the experiments. The rats were housed with laboratory chow and water ad libitum prior to the study. The rats were fasted for 24-30 hours with free access to water and then dosed by oral gavage with vehicle or with drugs given at a volume of 0.5 mL/100 g. For the unmodified NSAIDs being given in combination with a nitric oxide adduct (NO-adduct), the NO-adduct was administered by oral gavage immediately prior to the administration of NSAID by oral gavage. Food was withheld for 18 hours after the initial dosing. For acute studies, rats were euthanized by CO2 eighteen hours after dosing and the stomachs were dissected. For the multiple dosing studies, the results of which are in Table 3, food was given eighteen hours after the first dose and the rats were maintained on food and water ad libitum while receiving a single daily dose for the remainder of the experiment. […] The stomachs were dissected along the greater curvature, washed with a directed stream of 0.9% saline and pinned open on a sylgard based petridish for examination of the hemorrhagic lesion. Gastric lesion score was expressed in mm and calculated by summing the length of each lesion.

[3] = tested on: phenylbenzoquinone-induced writhing; assay: phenylbenzoquinone-induced writhing test in mice (analgesic activity); assay type: in vivo; settings: ratio of activity relative to the parent NSAID; oral gavage 1 hour prior to phenylbenzoquinone i.p.
Protocol: The phenylbenzoquinone-induced writhing test in mice was used to measure analgesic activity. The ability of the compounds to inhibit phenylbenzoquinone-induced writhing in mice was measured using the method of Siegmund et al., Proc. Soc. […] Male CD-1 mice (Charles River Laboratories, Wilmington, Mass.) weighing 20-25 g were fasted overnight. Vehicle or compounds were administered by oral gavage 1 hour prior to i.p. injection of 2 mg/kg of phenylbenzoquinone. In the case of a nitric oxide adduct being given in combination with a NSAID, the nitric oxide adduct was administered immediately before the NSAID. Five minutes after the i.p. injection of phenylbenzoquinone, the number of writhes in a 5 minute period was counted.

[4] = 7 days, fasted 24-30 hours before and 18 hours after first dosing, Ibuprofen 30, Example 11 50, Example 12 45 mg/kg
[5] = ratio of activity relative to the parent NSAID, oral gavage, fasted rats
[6] = male, Sprague Dawley, rat, in vivo, po, 18 h

Row | Relative Activity Gastric Lesion (gastric lesion [2]; rat, in vivo, po) | Relative Activity Gastric Lesion (gastric lesion [2]; [6]) | Compound | Relative Gastric Lesion Activity (gastric lesion [1]; [4]) | Relative Activity Antiinflammation (carrageenin paw edema) | Relative Activity Gastric Lesion (gastric lesion [2]; [5]) | Relative Activity Analgesia [3] | Relative Gastric Lesion Activity (gastric lesion [1]; 4 days, fasted 24-30 hours before and 4 hours after first dosing, Ketoprofen 10, Example 4 14, Example 6 15 mg/kg)
1 | 0.03 |  | CC(C(=O)OCCCCON=O)c1cccc(C(=O)c2ccccc2)c1 (stereo not drawn) [Example 4, 4-O-Nitroso-1-(3-benzoyl-α-methylbenzeneacetic Acid) Butyl Ester] |  | 0.58 |  | 1.6 | 
2 | 0.08 |  | COc1ccc2c(c1)c(CC(=O)OCCCCON=O)c(C)n2C(=O)c1ccc(Cl)cc1 [Example 8] |  | 1 |  | 1 | 
3 | 0.5 |  | CC(C(=O)OCCCCON=O)c1ccc(-c2ccccc2)c(F)c1 (stereo not drawn) [Example 13, 4-O-Nitroso-1-(2-Fluoro-α-methyl-biphenylacetic Acid) Butyl Ester] |  | 1.83 |  | 0.31 | 
4 |  | 1 | CC(C(=O)O)c1ccc(-c2ccccc2)c(F)c1 (stereo not drawn) [Flurbiprofen, reference compound] |  | 1 |  | 1 | 
5 |  | 1 | COc1ccc2c(c1)c(CC(=O)O)c(C)n2C(=O)c1ccc(Cl)cc1 [Indomethacin, reference compound] |  | 1 |  | 1 | 

More lines, now with the values behind:

Row | Compound | Relative Activity Gastric Lesion (gastric lesion [2]; rat, in vivo, po) | Relative Activity Gastric Lesion (gastric lesion [2]; [6]) | Relative Gastric Lesion Activity (gastric lesion [1]; [4]) | Relative Activity Antiinflammation (carrageenin paw edema) | Relative Activity Gastric Lesion (gastric lesion [2]; [5]) | Relative Activity Analgesia [3] | Relative Gastric Lesion Activity (gastric lesion [1]; 4 days, fasted 24-30 hours before and 4 hours after first dosing, Ketoprofen 10, Example 4 14, Example 6 15 mg/kg)
6 | 4-O-Nitroso-1-(α-methyl-4-(2-methylpropyl)benzeneacetic Acid) Butyl Ester [Example 12] |  |  | + (1-20% of the gastric toxcity induced by the parent NSAID = +) | 1 | <0.03 |  | 
7 | 4-O-Nitroso-4-methyl-1-(3-benzoyl-α-methylbenzeneacetic Acid) Pentyl Ester [Example 5] |  |  |  |  |  | 1.1 | 
8 | CC(C(=O)OCCC(C)(C)SN=O)c1cccc(C(=O)c2ccccc2)c1 (stereo not drawn) [Example 6, 3-S-Nitroso-3-methyl-1-(3-benzoyl-α-methylbenzeneacetic Acid) Butyl Ester] |  |  |  |  |  | 1 | ++ (21-40% of the gastric toxcity induced by the parent NSAID = ++)
9 | CC(C)Cc1ccc(C(C)C(=O)OCCC(C)(C)SN=O)cc1 (stereo not drawn) [Example 11, 3-S-Nitroso-3-methyl-1-(α-methyl-4-(2-methylpropyl)benzeneacetic Acid) Butyl Ester] |  |  | + (1-20% of the gastric toxcity induced by the parent NSAID = +) | 1 | <0.05 |  | 
10 | CC(C(=O)OCc1ccc(CON=O)cc1)c1cccc(C(=O)c2ccccc2)c1 (stereo not drawn) [Example 16, 4O-Nitroso-hydroxymethylene-(1-(3-benzoyl-α-methylbenzeneacetic Acid)) Benzyl Ester] |  |  |  |  |  | 1.1 | 
11 | CN1C(C(=O)Nc2ccccn2)=C(O)c2ccccc2S1(=O)=O [Piroxicam, reference compound] |  | 1 |  |  |  | 1 | 
